{"source": "patent US8138158B2", "about": "“Compositions and methods for therapy for diseases characterized by defective chloride transport” (Children's Hospital & Research Center at Oakland, priority 1997, dated 2012)", "key": {"[1]": {"test_system": "nasal potential difference (NPD)", "assay": "Nasal potential difference (NPD) measurements in healthy volunteers, Example 12", "type": "in vivo, human", "experimental": "Nasal potential difference (NPD) measurements. Measurements of NPD were performed in healthy volunteers as described (Illek, B. & Fischer, H., Supra). The study protocol was approved by the Internal Review Board at Children's Hospital Oakland. Solutions and test drugs were perfused into one nostril at ˜5 ml/min at room temperature (23-25° C.). NaCl solution contained (in mM): 145 NaCl, 4 KCl, 1 CaCl2, 1 MgCl2, 10 Hepes, pH=7.4. In Cl free solutions all Cl salts were replaced by the respective gluconate salts. All solutions were sterile filtered before use. NPD was sensed with an Ag/AgCl/agar electrode placed in the perfusing tube with respect to an electrode placed on a slightly scratched skin part on the forearm (Alton, E. W. F. W., Currie, A. D., Logan-Sinclair, R., Warner, J. O., Hodson, M. E. & Geddes, D. M. (1990) Eur. Resp. J. 3, 922-926).\nIn vivo effects of ascorbic acid on Cl transport were evaluated using the nasal potential difference (NPD) assay for Cl channel function. The Cl-selective NPD was measured in amiloride-containing (100 μm) and chloride-free solutions. These experiments served as an important control to verify the significance of the transepithelial results obtained with ascorbic acid in Calu-3 cells. In close agreement with the transepithelial measurements, NPD was progressively hyperpolarized during the exposure of the nasal mucosa to L-ascorbic acid (by −6.7±0.4 mV, n=3) and the cAMP-stimulating agonist isoproterenol (by −5.5±0.5 mV, n=4) (FIG. 21C). A dose of 300 μm L-ascorbic acid hyperpolarized NPD to 72% of the NPD in presence of the cAMP agonist isoproterenol (10 μM)."}, "[2]": {"test_system": "wildtype CFTR-corrected CF15 monolayers", "assay": "Short-circuit current across wildtype CFTR-corrected CF15 monolayers", "type": "cell-based, human", "experimental": "Human airway cell culture. The human submucosal serous gland-like cell line Calu-3, the CF nasal epithelial cell line homozygous for ΔF508 CFTR (CF15) and human tracheal primary cultures (hTE) were cultured as described (Jefferson, D. M., Valentich, J. D., Marini, F. C., Grubman, S. A., Iannuzzi, M. C., Dorkin, H. L., Li, M., Klinger, K. W. & Welsh, M. J. (1990) Am. J. Physiol. 259, L496-L505. Sachs, L. A., Finkbeiner, W. E. & Widdicombe, J. H. (2003) In Vitro Cell Dev. Biol. Anim. 39, 56-62.). Wildtype CFTR-corrected CF15 cells were generated via adenovirus-mediated gene transfer. Growth media were nominally free of ascorbic acid (<10 μm, University Pathology Inc., Salt Lake City, Utah). For transepithelial measurements cells were grown on permeable filter inserts and used after 3 to 10 days.\nShort-circuit current measurement. Calu-3 or CF15 cells were grown as monolayers, mounted in Ussing chambers and short-circuit current (ISC) was recorded as described (Illek, B. & Fischer, H. (1998) Am. J. Physiol. 275, L902-L910). At 20-50 second intervals, transepithelial voltage was clamped from zero to 2 mV and the transepithelial resistance (Rte) was calculated. A serosa-to-mucosa-directed Cl gradient was applied. Serosal Ussing chamber solution contained (in mM): 120 NaCl, 20 NaHCO3, 5 KHCO3, 1.2 NaH2PO4, 5.6 glucose, 2.5 CaCl2, 1.2 MgCl2. In mucosal Ussing chamber solutions, all Cl salts were exchanged for gluconate salts.\nThe CF15 cell line was used to determine whether ascorbate-stimulated Cl currents were solely mediated by the CFTR Cl conductance. The CF15 cell line is characterized by the absence of functional CFTR in the apical plasma membrane but the presence of other non-CFTR Cl conductances (Jefferson, D. M., Valentich, J. D., Marini, F. C., Grubman, S. A., Iannuzzi, M. C., Dorkin, H. L., Li, M., Klinger, K. W. & Welsh, M. J. (1990) Am. J. Physiol. 259, L496-L505). A concentration of L-ascorbic acid that lay within the upper plateau of the dose response curve (500 μm) was applied and ascorbate-stimulated Cl currents in CF15 vs. wildtype CFTR-corrected CF15 monolayers was compared (FIG. 23A). […] The defective response to L-ascorbic acid was reversed in wildtype CFTR-corrected CF15 epithelia such that ISC responded promptly to L-ascorbic acid (ΔISC=7.5±0.5 μA/cm^2, n=6). The ascorbate-stimulated current was further activated by the cAMP agonist forskolin and total stimulated ISC averaged 12.1±1.1 μA/cm^2 (FIG. 4B). The ascorbate-stimulated Cl current reached 60±15% of the forskolin-stimulated current in CFTR-corrected CF15 monolayers, which was close to the corresponding findings in Calu-3 monolayers (68%, see FIG. 21A). The absence of ascorbate-stimulated Cl currents in CF15 monolayers supports the notion that non-CFTR Cl conductances were not activated by L-ascorbic acid.\nIn this example, chloride currents stimulated by L-ascorbate or D-ascorbate were measured in CF15 versus. wildtype CFTR-corrected CF15 monolayers. A concentration of L-ascorbate (1 mM) or D-isoascorbate (300 μm) that lay within the upper plateau of the dose-response curve was applied to cells and the resulting chloride currents stimulated in CF15 versus wildtype CFTR-corrected CF15 monolayers were measured (FIG. 25 A-H). All experiments were performed in the presence of the sodium channel blocker amiloride. […]"}}}
{"smiles": "O=C1O[C@H](C(O)CO)C(O)=C1O", "note": "(stereo partly drawn) [L-ascorbic acid, L-xyloascorbic acid]", "values": [{"measurement": "NPD hyperpolarized to % of the NPD in presence of isoproterenol", "setting": "[1]; 300 μm L-ascorbic acid vs isoproterenol 10 μM", "result": 72, "unit": "%"}, {"measurement": "NPD hyperpolarized by", "setting": "[1]; L-ascorbic acid, amiloride (100 μm), chloride-free, n=3", "result": "−6.7±0.4", "unit": "mV"}, {"measurement": "ascorbate-stimulated Cl current, % of the forskolin-stimulated current", "setting": "[2]", "result": "60±15", "unit": "%"}, {"measurement": "ΔIsc", "setting": "[2]; L-ascorbate 1 mM, amiloride, n=6", "result": "7.5±0.5", "unit": "μA/cm2"}, {"measurement": "ΔISC", "setting": "[2]; L-ascorbic acid 500 μm, n=6", "result": "7.5±0.5", "unit": "μA/cm^2"}]}
